From patent US20100267561A1, “HERBICIDAL PYRIDAZINONE DERIVATIVES” (priority 2007, published 2010)

What was measured:
Assay in all cases: Test B pre-/postemergence plant response
Assay type in all cases: in vivo
[1] = tested on: surinam grass (Brachiaria decumbens); details: Preemergence; for Surinam Grass plant response rating: scale 0 to 100
In short: (§1)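 Visual scoring from 0 (no effect) to 100 (complete control) against untreated controls was done 13 to 15 days after greenhouse treatment. Chemicals were formulated in a surfactant-containing non-phytotoxic solvent and applied to soil preemergence or to 1- to 4-leaf (2-18 cm) plants postemergence.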

[2] = tested on: lambsquarters (Chenopodium album); details: Preemergence
In short: as §1

[3] = tested on: johnsongrass (Sorghum halepense); details: Preemergence
In short: as §1

soybean (Glycine max) = details: Preemergence
In short: as §1

[4] = tested on: Italian ryegrass (Lolium multiflorum); details: Preemergence
In short: as §1

[5] = tested on: bermudagrass (Cynodon dactylon); details: Preemergence
In short: as §1

[6] = tested on: morningglory (Ipomoea coccinea); details: Preemergence
In short: as §1

[7] = tested on: common (oilseed) sunflower (Helianthus annuus); details: Preemergence
In short: as §1

[8] = tested on: common ragweed (Ambrosia elation); details: Preemergence
In short: as §1

[9] = tested on: cocklebur (Xanthium strumarium); details: Preemergence
In short: as §1

[10] = tested on: wheat (Triticum aestivum); details: Preemergence; for Wheat plant response rating: scale 0 to 100
In short: as §1

[11] = tested on: goosegrass (Eleusine indica); details: Preemergence
In short: as §1

[12] = tested on: velvetleaf (Abutilon theophrasti); details: Preemergence; for Velvetleaf plant response rating: scale 0 to 100
In short: as §1

[13] = 31 g ai/ha, scale 0 to 100 (0 no effect, 100 complete control)
[14] = 62 g ai/ha, 0 to 100 scale, 0 no effect, 100 complete control
[15] = 31 g ai/ha, 0 to 100 scale, 0 no effect, 100 complete control
[16] = 16 g ai/ha, scale 0 to 100 (0 no effect, 100 complete control)

Cc1cc(-c2ccc(Cl)cc2)nn1-c1c(OS(=O)(=O)c2ccccc2[N+](=O)[O-])cnn(C)c1=O [Compound 51]
Plant response rating, Surinam Grass [1, 13]: 90
Plant response rating, Surinam Grass [1, 14]: 100
Surinam Grass plant response rating ([1]; 8 g ai/ha): 30
Surinam Grass plant response rating ([1]; 16 g ai/ha): 75
Plant response rating, Lambsquarters [2, 15]: 0
Plant response rating, Lambsquarters ([2]; 62 g ai/ha, scale 0 to 100): 0
Plant response rating, Johnsongrass [3, 15]: 70
Plant response rating, Johnsongrass ([3]; 62 g ai/ha, scale 0 to 100): 80
Johnsongrass plant response rating ([3]; 16 g ai/ha, scale 0 to 100): 50
Plant response rating, Soybean (soybean (Glycine max); [13]): 0
Plant response rating, Soybean (soybean (Glycine max); 62 g ai/ha, scale 0 to 100): 0
Soybean plant response rating (soybean (Glycine max); 8 g ai/ha, scale 0 to 100): 0
Soybean plant response rating (soybean (Glycine max); 16 g ai/ha, scale 0 to 100): 0
Plant response rating, Ryegrass, Italian [4, 13]: 100
Plant response rating, Ryegrass, Italian ([4]; 62 g ai/ha, scale 0 to 100): 100
Ryegrass, Italian plant response rating ([4]; 8 g ai/ha, scale 0 to 100): 100
Ryegrass, Italian plant response rating ([4]; 16 g ai/ha, scale 0 to 100): 100
Bermudagrass plant response rating ([5]; 8 g ai/ha, scale 0 to 100 (0 no effect, 100 complete control)): 60
Plant response rating, Bermudagrass [5, 16]: 100
Plant response rating, Bermudagrass [5, 15]: 100
Plant response rating, Bermudagrass ([5]; 62 g ai/ha, scale 0 to 100): 100
Plant response rating, Morningglory [6, 13]: 0
Plant response rating, Morningglory ([6]; 62 g ai/ha, scale 0 to 100): 0
Morningglory plant response rating ([6]; 8 g ai/ha, scale 0 to 100): 0
Morningglory plant response rating ([6]; 16 g ai/ha, scale 0 to 100): 0
Plant response rating, Sunflower [7, 13]: 0
Plant response rating, Sunflower ([7]; 62 g ai/ha, scale 0 to 100): 0
Sunflower plant response rating ([7]; 8 g ai/ha, scale 0 to 100): 0
Sunflower plant response rating ([7]; 16 g ai/ha, scale 0 to 100): 0
Plant response rating, Ragweed [8, 13]: 0
Plant response rating, Ragweed ([8]; 62 g ai/ha, scale 0 to 100): 0
Ragweed plant response rating ([8]; 8 g ai/ha, scale 0 to 100): 0
Ragweed plant response rating ([8]; 16 g ai/ha, scale 0 to 100): 0
Plant response rating, Cocklebur [9, 16]: 0
Plant response rating, Cocklebur [9, 15]: 0
Plant response rating, Cocklebur ([9]; 62 g ai/ha, scale 0 to 100): 0
Cocklebur plant response rating ([9]; 8 g ai/ha, scale 0 to 100): 0
Plant response rating, Wheat [10, 13]: 10
Plant response rating, Wheat [10, 14]: 60
Wheat plant response rating ([10]; 8 g ai/ha): 0
Wheat plant response rating ([10]; 16 g ai/ha): 0
Plant response rating, Goosegrass [11, 15]: 75
Plant response rating, Goosegrass ([11]; 62 g ai/ha, scale 0 to 100): 90
Goosegrass plant response rating ([11]; 8 g ai/ha, scale 0 to 100): 0
Goosegrass plant response rating ([11]; 16 g ai/ha, scale 0 to 100): 60
Plant response rating, Velvetleaf [12, 13]: 0
Plant response rating, Velvetleaf [12, 14]: 0
Velvetleaf plant response rating ([12]; 8 g ai/ha): 0
Velvetleaf plant response rating ([12]; 16 g ai/ha): 0
